Results reported in US5684034A, “1H-indole-3-acetamide sPLA2 inhibitors” (Eli Lilly and Company, priority 1995, dated 1997).
Like-named read-outs stand apart in the source and are kept apart here.

Key:
[1] = molecular target: T1, recombinant human secreted phospholipase A2 (Homo sapiens, UniProt P14555); assay: Human secreted phospholipase A2 inhibition test (chromogenic assay, diheptanoyl thio-PC substrate); assay type: biochemical; conditions: pH 7.5, 40° C., 30 minutes, 405 nm
T1 sequence (P14555 21-144): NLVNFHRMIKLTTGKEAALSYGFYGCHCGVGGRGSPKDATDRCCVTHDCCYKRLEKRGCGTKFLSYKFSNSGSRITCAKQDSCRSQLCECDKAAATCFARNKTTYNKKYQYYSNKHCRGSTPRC
Protocol: The following chromogenic assay procedure was used to identify and evaluate inhibitors of recombinant human secreted phospholipase A2. The assay described herein has been adapted for high volume screening using 96 well microtiter plates.
A measured volume of racetic dipheptanoyl thio PC supplied in chloroform at a concentration of 100 mg/ml is taken to dryness and redissolved in 10 millimolar TRITON X-100™ nonionic detergent aqueous solution. Reaction Buffer is added to the solution, then DTNB to give the Reaction Mixture.
The reaction mixture thus obtained contains 1 mM diheptanoly thio-PC substrate, 0.29 mm Triton X-100™ detergent, and 0.12 mm DTMB in a buffered aqueous solution at pH 7.5.
1. Add 0.2 ml reaction mixture to all wells;
2. Add 10 ul test compound (or solvent blank) to appropriate wells, mix 20 seconds:
3. Add 50 nanograms of sPLA2 (10 microliters) to appropriate wells;
4. incubate plate at 40° C. for 30 minutes;
All compounds were tested in triplicate. […] Each sample was titrated in triplicate and result values were averaged for plotting and calculation of IC50 values. […] Each IC50 value was determined three times.

sPLA2 = molecular target: T2, sPLA2 (Homo sapiens, UniProt P14555); assay: Tissue test: sPLA2-induced contraction of guinea pig lung pleural strips; set-up: species or system guinea pig (male Hartley); conditions: % suppression of sPLA2 contraction (sPLA2 10 ug/ml) at compound concentration of 30 uM, read-out: Tissue Test (sPLA2) % Supp (30 uM)
T2 sequence (P14555 21-144): T1 sequence (P14555 21-144)
Source text: Male Hartley strain guinea pigs (500-700 g) were killed by cervical dislocation and their heart and lungs removed intact and placed in aerated (95% O2 :5% CO2) Krebs buffer. Dorsal pleural strips (4×1×25 mm) were dissected from intact parenchymal segments (8×4×25 mm) cut parallel to the outer edge of the lower lung lobes. Two adjacent pleural strips, obtained from a single lobe and representing a single tissue sample, were tied at either end and independently attached to a metal support rod. One rod was attached to a Grass force-displacement transducer (Model FTO3C, product of Grass Medical Instruments Co., Quincy, Mass., U.S.A.). […] All tissues were placed in 10 ml jacketed tissue baths maintained at 37° C. The tissue baths were continuously aerated and contained a modified Krebs solution of the following composition (millimolar) NaCl, 118.2; KCl, 4.6; CaCl2.2H2 O, 2.5; MgSO4.7H2 O, 1.2; NaHCO3, 24.8; KH2 PO4, 1.0; and dextrose, 10.0. Pleural strips from the opposite lobes of the lung were used for paired experiments. […] The tissues were allowed to equilibrate for 45 min. as the bath fluid was changed periodically.
Initially tissues were challenged 3 times with KCl (40 mM) to test tissue viability and to obtain a consistent response. After recording the maximal response to KCl, the tissues were washed and allowed to return to baseline before the next challenge. Cumulative concentration-response curves were obtained from pleural strips by increasing the agonist concentration (sPLA2) in the tissue bath by half-log10 increments while the previous concentration remained in contact with the tissues (Ref. 1, supra.) Agonist concentration was increased after reaching the plateau of the contraction elicited by the preceding concentration. One concentration-response curve was obtained from each tissue. To minimize variability between tissues obtained from different animals, contractile responses were expressed as a percentage of the maximal response obtained with the final KCl challenge. When studying the efects of various drugs on the contractile efects of sPLA2, the compounds and their respective vehicles were added to the tissues 30 min. prior to starting the sPLA2 concentration-response curves.
Data from different experiments were pooled and presented as a percentage of the maximal KCl responses (mean±S.E.). To estimate the drug induced rightward shifts in the concentration response curves, the curves were analyzed simultaneously using statistical nonlinear modeling methods similar to those described by Waud (1976), Equation 26, p. 163, (Ref. 2). The model includes four parameters: the maximum tissue response which was assumed the same for each curve, the ED50 for the control curve, the steepness of the curves, and the pA2, the concentration of antagonist chat requires a two-fold increase in agonist to achieve an equivalent response. The Schild slope was determined to be 1, using statistical nonlinear modeling methods similar to those described by Waud (1976), Equation 27, p. 164 (Ref. 2).
To estimate the drug-induced suppression of the maximal responses, sPLA2 responses (10 ug/ml) were determined in the absence and presence of drug, and percent suppression was calculated for each pair of tissues.

[2] = read-out: Inhibition of human secreted PLA2 IC50 ± mean deviation (3-5 tests)

Structure (SMILES)	IC50 [1, 2] [µM]	inhibition at 30 µM (sPLA2) [%]	IC50 ([1]; Inhibition of human secreted PLA2 IC50 ± mean deviation (3-5 tests)) [µM]
COc1ccc2c(c1)c(CC(N)=O)c(C)n2CC1CCCCC1 [Example 4, 1-Cyclohexylmethyl-5-methoxy-2-methyl-1H-indole-3-acetamide]	2.05 ± 0.85	10.5 ± 23.1	
COc1ccc2c(c1)c(CC(N)=O)c(C)n2Cc1ccccc1 [Example 5, 5-Methoxy-2-methyl-1-(phenylmethyl)-1H-indole-3-acetamide]	0.84 ± 0.17	74.9 ± 4.2	
CCc1c(CC(N)=O)c2cc(OC)ccc2n1Cc1ccccc1 [Example 9, 2-Ethyl-5-methoxy-1-(phenylmethyl)-1H-indole-3-acetamide]	0.26 ± 0.11	49.2 ± 9.4	
COc1ccc2c(c1)c(CC(N)=O)c(SC)n2Cc1ccccc1 [Example 12, 5-Methoxy-2-(methylthio)-1-(phenylmethyl)-1H-indole-3-acetamide]		30.3 ± 15.2	0.4 ± 0.09
Cc1c(CC(N)=O)c2cc([N+](=O)[O-])ccc2n1Cc1ccccc1 [Example 16, 2-Methyl-5-nitro-1-(phenylmethyl)-1H-indole-3-acetamide]	1.84 ± 0.44	51.7 ± 4.2	
CCOC(=O)COc1ccc2c(c1)c(CC(N)=O)c(C)n2Cc1ccccc1 [Example 18, 2-[[3-(2-Amino-2-oxoethyl)-2-methyl-1-(phenylmethyl)-1H-indol-5-yl]oxy]acetic acid ethyl ester]	0.8 ± 0.05	74.1 ± 4	
Cc1c(CC(N)=O)c2cc(OCCCCC(=O)O)ccc2n1Cc1ccccc1 [Example 23, 5-[[3-(2-Amino-2-oxoethyl)-2-methyl-1-(phenylmethyl)-1H-indol-5-yl]oxy]pentanoic acid]	0.92 ± 0.36	83.3 ± 2.7	
